# Source: article PMC7914897, “Cytotoxic Potential of a-Azepano- and 3-Amino-3,4-SeCo-Triterpenoids” (International Journal of Molecular Sciences, 2021)
# Read-outs that look alike come from different tables or passages of the source.
# Legend:
# DU-145 (Prostate cancer) = test: NCI-60 screen (SRB, 48 h); details: Homo sapiens; for GI50: DU-145; for IC (TGI): DU-145, 48 h, read-out: TGI
# TK-10 (Renal cancer) = test: NCI-60 screen (SRB, 48 h); details: for GI50: TK-10; for IC (TGI): TK-10, 48 h, read-out: TGI
# SF-539 (CNS cancer) = test: NCI-60 screen (SRB, 48 h); details: Homo sapiens; for GI50: SF-539; for IC (TGI): SF-539, 48 h, read-out: TGI
# Ovarian Cancer subpanel = test: NCI-60 screen, subpanel; details: Homo sapiens; for IC (TGI): 48 h, read-out: TGI MG_MID; for GI50: read-out: GI50 MG_MID
# MOLT-4 (Leukemia) = test: NCI-60 screen (SRB, 48 h); details: Homo sapiens; for GI50: MOLT-4
# [1] = tested on: NCI-H460 (NSC lung cancer); test: NCI-60 screen (SRB, 48 h); details: Homo sapiens; for GI50: NCI-H460; for IC (TGI): NCI-H460, 48 h, read-out: TGI
# Leukemia subpanel = test: cells; details: Homo sapiens; for IC (TGI): 48 h, read-out: TGI MG_MID; for GI50: read-out: GI50 MG_MID
# Breast cancer subpanel = test: NCI-60 screen, subpanel; details: Homo sapiens; for IC (TGI): 48 h, read-out: TGI MG_MID; for GI50: read-out: GI50 MG_MID; for CC50: read-out: LC50 MG_MID
# [2] = tested on: NCI-H23 (NSC lung cancer); test: NCI-60 screen (SRB, 48 h); details: Homo sapiens; for GI50: NCI-H23; for IC (TGI): NCI-H23, 48 h, read-out: TGI
# LOX IMVI (Melanoma) = test: NCI-60 screen (SRB, 48 h); type: cell-based; details: Homo sapiens; for GI50: read-out: GI50
# HT29 (Colon cancer) = test: NCI-60 screen (SRB, 48 h); details: Homo sapiens; for GI50: HT-29
# SK-MEL-28 (Melanoma) = test: NCI-60 screen (SRB, 48 h); details: Homo sapiens; for GI50: SK-MEL-28; for IC (TGI): SK-MEL-28, 48 h, read-out: TGI
# HS 578T (Breast cancer) = test: NCI-60 screen (SRB, 48 h); details: Homo sapiens
# SF-268 (CNS cancer) = test: NCI-60 screen (SRB, 48 h); details: Homo sapiens; for GI50: SF-268
# OVCAR-8 (Ovarian cancer) = test: NCI-60 screen (SRB, 48 h); details: Homo sapiens; for GI50: OVCAR-8
# [3] = tested on: MDA-MB-468 (Breast cancer); test: cells; details: Homo sapiens; for GI50: MDA-MB-468; for IC (TGI): MDA-MB-468, 48 h, read-out: TGI; for CC50: MDA-MB-468, read-out: LC50
# SK-MEL-5 (Melanoma) = test: NCI-60 screen (SRB, 48 h); details: for GI50 / IC (TGI) / CC50: Homo sapiens; for GI50: SK-MEL-5; for IC (TGI): SK-MEL-5, 48 h, read-out: TGI; for CC50: SK-MEL-5, read-out: LC50
# BT-549 (Breast cancer) = test: NCI-60 screen (SRB, 48 h); type: cell-based; details: Homo sapiens; for GI50: BT-549
# HOP-62 (NSC lung cancer) = test: NCI-60 screen (SRB, 48 h); details: Homo sapiens; for GI50: HOP-62
# [4] = tested on: NCI/ADR-RES (Ovarian cancer); test: NCI-60 screen (SRB, 48 h); details: Homo sapiens
# OVCAR-3 (Ovarian cancer) = test: cells; details: Homo sapiens; for GI50: OVCAR-3
# MDA-MB-435 (Melanoma) = test: NCI-60 screen (SRB, 48 h); type: cell-based
# OVCAR-4 (Ovarian cancer) = test: NCI-60 screen (SRB, 48 h); type: cell-based; details: Homo sapiens; for IC (TGI): OVCAR-4, 48 h; for GI50: OVCAR-4, read-out: GI50
# Colon Cancer subpanel = test: NCI-60 screen, subpanel; details: Homo sapiens; for IC (TGI): 48 h, read-out: TGI MG_MID; for GI50: read-out: GI50 MG_MID; for CC50: read-out: LC50 MG_MID
compound,measurement,setting,value
C=C(C)[C@@H]1CC[C@]2(C(=O)N[C@H](CO)Cc3ccccc3)CC[C@]3(C)[C@H](CC[C@@H]4[C@@]5(C)CCCNC(C)(C)[C@@H]5CC[C@]43C)[C@@H]12 [Compound 11],GI50,DU-145 (Prostate cancer),1480 nM
same,IC (TGI),DU-145 (Prostate cancer),2870 nM
same,GI50,TK-10 (Renal cancer); Homo sapiens,1610 nM
same,IC (TGI),TK-10 (Renal cancer); Homo sapiens,3080 nM
same,CC50,"TK-10 (Renal cancer); Homo sapiens, TK-10, read-out: LC50",5890 nM
same,Growth % of the Most Sensitive Cell Lines,"TK-10 (Renal cancer); TK-10, 1 dose 10 µM",−94.69%
same,GI50,SF-539 (CNS cancer),1730 nM
same,IC (TGI),SF-539 (CNS cancer),3190 nM
same,IC (TGI),Ovarian Cancer subpanel,2620 nM
same,GI50,Ovarian Cancer subpanel,1200 nM
same,GI50,MOLT-4 (Leukemia),670 nM
same,IC (TGI),"MOLT-4 (Leukemia); MOLT-4, 48 h, read-out: TGI",2300 nM
same,GI50,[1],1210 nM
same,IC (TGI),[1],2770 nM
same,IC (TGI),Leukemia subpanel,1030 nM
same,GI50,Leukemia subpanel,340 nM
same,IC (TGI),Breast cancer subpanel,3160 nM
same,GI50,Breast cancer subpanel,1410 nM
same,CC50,Breast cancer subpanel,6010 nM
same,GI50,[2],1600 nM
same,IC (TGI),[2],3170 nM
same,IC (TGI),LOX IMVI (Melanoma); 48 h,2420 nM
same,GI50,LOX IMVI (Melanoma),1070 nM
same,GI50,HT29 (Colon cancer),240 nM
same,IC (TGI),"HT29 (Colon cancer); HT-29, 48 h, read-out: TGI",540 nM
same,CC50,"HT29 (Colon cancer); HT-29, read-out: LC50",1750 nM
same,GI50,SK-MEL-28 (Melanoma),1550 nM
same,IC (TGI),SK-MEL-28 (Melanoma),3030 nM
same,GI50,HS 578T (Breast cancer),1610 nM
same,IC (TGI),"HS 578T (Breast cancer); 48 h, read-out: TGI",3780 nM
same,GI50,SF-268 (CNS cancer),1560 nM
same,IC (TGI),"SF-268 (CNS cancer); SF-268, 48 h, read-out: TGI",3390 nM
same,GI50,OVCAR-8 (Ovarian cancer),1120 nM
same,IC (TGI),"OVCAR-8 (Ovarian cancer); OVCAR-8, 48 h, read-out: TGI",2800 nM
same,GI50,[3],1520 nM
same,IC (TGI),[3],3030 nM
same,CC50,[3],6010 nM
same,GI50,SK-MEL-5 (Melanoma),1670 nM
same,IC (TGI),SK-MEL-5 (Melanoma),3070 nM
same,CC50,SK-MEL-5 (Melanoma),5640 nM
same,Growth % of the Most Sensitive Cell Lines,"SK-MEL-5 (Melanoma); SK-MEL-5, 1 dose 10 µM",−95.48%
same,GI50,BT-549 (Breast cancer),1690 nM
same,IC (TGI),"BT-549 (Breast cancer); BT-549, 48 h",3320 nM
same,GI50,HOP-62 (NSC lung cancer),1710 nM
same,IC (TGI),"HOP-62 (NSC lung cancer); HOP-62, 48 h, read-out: TGI",3340 nM
same,GI50,[4],1350 nM
same,IC (TGI),"[4]; 48 h, read-out: TGI",3010 nM
same,GI50,OVCAR-3 (Ovarian cancer),460 nM
same,IC (TGI),"OVCAR-3 (Ovarian cancer); OVCAR-3, 48 h, read-out: TGI",1600 nM
same,IC (TGI),"MDA-MB-435 (Melanoma); Homo sapiens, MDA-MB-435, 48 h; read-out: TGI",2360 nM
same,GI50,"MDA-MB-435 (Melanoma); Homo sapiens, MDA-MB-435; read-out: GI50",1100 nM
same,IC (TGI),OVCAR-4 (Ovarian cancer),940 nM
same,GI50,OVCAR-4 (Ovarian cancer),240 nM
same,IC (TGI),Colon Cancer subpanel,2180 nM
same,GI50,Colon Cancer subpanel,960 nM
same,CC50,Colon Cancer subpanel,3760 nM
C[C@H]1[C@H](C)CC[C@]2(C(=O)Nc3ccc4ncccc4c3)CC[C@]3(C)C(=CC[C@@H]4[C@@]5(C)CCCNC(C)(C)[C@@H]5CC[C@]43C)[C@H]12 [Compound 14],GI50,DU-145 (Prostate cancer),1760 nM
same,IC (TGI),DU-145 (Prostate cancer),3280 nM
same,GI50,TK-10 (Renal cancer); Homo sapiens,1690 nM
same,IC (TGI),TK-10 (Renal cancer); Homo sapiens,3200 nM
same,GI50,SF-539 (CNS cancer),1610 nM
same,IC (TGI),SF-539 (CNS cancer),3010 nM
same,IC (TGI),Ovarian Cancer subpanel,3300 nM
same,GI50,Ovarian Cancer subpanel,1770 nM
same,CC50,Ovarian Cancer subpanel; read-out: LC50 MG_MID,6690 nM
same,GI50,MOLT-4 (Leukemia),1420 nM
same,GI50,[1],1940 nM
same,IC (TGI),[1],3820 nM
same,CC50,"[1]; NCI-H460, read-out: LC50",7530 nM
same,IC (TGI),Leukemia subpanel,3630 nM
same,GI50,Leukemia subpanel,1580 nM
same,IC (TGI),Breast cancer subpanel,3440 nM
same,GI50,Breast cancer subpanel,1760 nM
same,CC50,Breast cancer subpanel,6870 nM
same,GI50,[2],1760 nM
same,IC (TGI),[2],3390 nM
same,GI50,LOX IMVI (Melanoma),1780 nM
same,GI50,HT29 (Colon cancer),1590 nM
same,GI50,SK-MEL-28 (Melanoma),1660 nM
same,IC (TGI),SK-MEL-28 (Melanoma),3110 nM
same,GI50,HS 578T (Breast cancer),1960 nM
same,GI50,SF-268 (CNS cancer),1730 nM
same,GI50,OVCAR-8 (Ovarian cancer),1860 nM
same,GI50,[3],1740 nM
same,IC (TGI),[3],3450 nM
same,CC50,[3],6870 nM
same,GI50,SK-MEL-5 (Melanoma),1850 nM
same,IC (TGI),SK-MEL-5 (Melanoma),3320 nM
same,CC50,SK-MEL-5 (Melanoma),5940 nM
same,GI50,BT-549 (Breast cancer),1840 nM
same,GI50,HOP-62 (NSC lung cancer),1760 nM
same,GI50,[4],1910 nM
same,GI50,OVCAR-3 (Ovarian cancer),1810 nM
same,GI50,"MDA-MB-435 (Melanoma); Homo sapiens, MDA-MB-435",1580 nM
same,IC (TGI),"MDA-MB-435 (Melanoma); Homo sapiens, MDA-MB-435, 48 h, read-out: TGI",3000 nM
same,Growth % of the Most Sensitive Cell Lines,"MDA-MB-435 (Melanoma); MDA-MB-435, 1 dose 10 µM",−91.82%
same,IC (TGI),OVCAR-4 (Ovarian cancer),3250 nM
same,GI50,OVCAR-4 (Ovarian cancer),1660 nM
same,IC (TGI),Colon Cancer subpanel,3370 nM
same,GI50,Colon Cancer subpanel,1660 nM
same,CC50,Colon Cancer subpanel,6180 nM
